The target of one experiment is T1, pig pancreatic lipase (Sus scrofa, UniProt P00591).
T1 construct: purchased Sigma
T1 sequence (P00591 1-450): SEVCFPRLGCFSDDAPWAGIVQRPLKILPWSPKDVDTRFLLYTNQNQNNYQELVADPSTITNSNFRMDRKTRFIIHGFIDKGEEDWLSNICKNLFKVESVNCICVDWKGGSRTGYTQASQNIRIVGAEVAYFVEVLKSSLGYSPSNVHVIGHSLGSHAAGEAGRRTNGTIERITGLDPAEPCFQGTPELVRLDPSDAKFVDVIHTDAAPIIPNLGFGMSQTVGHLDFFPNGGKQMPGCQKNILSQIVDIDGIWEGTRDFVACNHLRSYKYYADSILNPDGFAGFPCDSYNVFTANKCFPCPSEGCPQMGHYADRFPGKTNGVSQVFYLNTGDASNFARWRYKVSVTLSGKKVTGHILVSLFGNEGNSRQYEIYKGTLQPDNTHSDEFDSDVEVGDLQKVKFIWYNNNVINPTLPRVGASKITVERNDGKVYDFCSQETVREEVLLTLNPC
In words: lipase activity measurement (free fatty acid released from emulsified fat, OD480). The experiment is classed as biochemical. The following applies: for Relative activity of test fat to soybean oil: 37° C., 1 hour. How it is done: (§1) Soybean oils of which 1 part (2O2 purity: about 0.8%), 5 parts (2O2 purity: about 4.2%), 10 parts (2O2 purity: about 8.3%) and 50 parts (2O2 purity about: 41.5%) were replaced with the 2O2 fraction obtained as described above, and the 2O2 fraction itself (2O2 purity: 83%) were used for the following lipase activity measurement. To 80 mg of each oil, 80 mg of phosphatidylcholine (Sigma), 5 mg of sodium taurocholate (Wako Pure Chemical Industries, Ltd.), and 9 ml of a 0.1 M TES buffer (PH 7) containing 0.1 M NaCl were added and the mixture was emulsified with an ultrasound oscillator for 1 minute to obtain a substrate. To 300 μl of the substrate, 5 μl (5U) of a pig pancreatic lipase (Sigma) was added and then reacted at 37° C. for 1 hour. To the reaction mixture was then added 3 ml of an extraction solvent (a mixture of chloroform/heptane/methanol=49 parts/49 parts/2 parts). The mixture was stirred vigorously and then centrifuged at 2500 rpm for 5 minutes. The upper layer was removed. To the lower layer was added 1 ml of a copper regent (prepared by dissolving 2.98 g of triethanolamine, 2.42 g of copper nitrate and 0.48 g of NaOH in 200 ml of water and then adding 66 g of NaCl). The mixture was stirred for 10 minutes and then centrifuged at 2500 rpm for 10 minutes to take 1.5 ml of the upper layer as a sample. To the sample was added 1.5 ml of a color-producing reagent (prepared by 0.2 g of bathocuproin and 0.1 g of butylhydroxyanisole in 200 ml of chloroform) and an absorbance at OD480 was measured as the quantity of free fatty acid.
as §1, with “(LUU/UUL” for “(2O2”, “0.7%),” for “0.8%),”, “3.5%) and” for “4.2%),”, “7.0%)” for “8.3%) and 50 parts (2O2 purity about: 41.5%)”, “LUU/UUL” for “2O2”, “70%)” for “83%)”
Soybean oils of which 1 part, 5 parts and 10 parts were replaced with the glyceryl ether lipid fraction obtained as described above, and the glyceryl ether lipid fraction itself were used for the following lipase activity measurement. To 80 mg of each oil, 80 mg of phosphatidylcholine (Sigma), 5 mg of sodium taurocholate (Wako Pure Chemical Industries, Ltd.), and 9 ml of a 0.1 M TES buffer (PH 7) containing 0.1 M NaCl were added and the mixture was emulsified with an ultrasound oscillator for 1 minute to obtain a substrate. To 300 μl of the substrate, 5 μl (5U) of a pig pancreatic lipase (Sigma) was added and then reacted at 37° C. for 1 hour. To the reaction mixture was then added 3 ml of an extraction solvent (a mixture of chloroform/heptane/methanol =49 parts/49 parts/2 parts). The mixture was stirred vigorously and then centrifuged at 2500 rpm for 5 minutes. […]

Experiment [1] is described as follows: Digestion and absorption test in mouse. The conditions noted are these: for Body fat percentage: PIXImus2; for Body weight: in g (unit assumed). Type of experiment: in vivo, C57BL/6J mice. How it is done:
Using the 2O2 fraction obtained in Preparation Example 1 and mice, a digestion and absorption test was performed for about 2 months. Seven-week-old C57BL/6J mice were pre-reared for 1 week and used for the test. The compounded feed shown in Table 2, which is prepared by partially modifying AIN-93G composition, or soybean oil as a control was fed to the mice for about 2 months. Each group consisted of 6 mice. After reared for about 2 months, a change in the body weight, feed efficiency and body fat percentage were measured. For measuring body fat percentage, an X-ray bone density measuring apparatus for exclusive use in experimental mice, PIXImus2 (GE Medical Systems) was used. As a result of a digestion and adsorption test on mice for 56 days, in a group using the 2O2 fraction, the body weight was reduced by about 10%, the feed efficiency was reduced by 17%, and the body fat percentage was reduced by about 14%.
Using the LUU/UUL fraction obtained in Preparation Example 3 and mice, a digestion and absorption test was performed for about 2 months. Seven-week-old C57BL/6J mice were pre-reared for 1 week and used for the test. The compounded feed shown in Table 5, which is prepared by partially modifying AIN-93G composition, or soybean oil as a control was fed to the mice for about 2 months. Each group consisted of 6 mice. After reared for about 2 months, a change in the body weight, feed efficiency and body fat percentage were measured. For measuring body fat percentage, an X-ray bone density measuring apparatus for exclusive use in experimental mice, PIXImus2 (GE Medical Systems) was used. As a result of a digestion and adsorption test on mice for 56 days, in a group using the […] fraction, the body weight was reduced by about 9%, the feed efficiency was reduced by 12%, and the body fat percentage was reduced by about 13%.
Using the glyceryl ether lipid fraction obtained in Preparation Example 4 and mice, a digestion and absorption test was performed for about 2 months. Seven-week-old C57BL/6J mice were pre-reared for 1 week and used for the test. The compounded feed shown in Table 8, which is prepared by partially modifying AIN-93G composition, or soybean oil as a control was fed to the mice for about 2 months. Each group consisted of 6 mice. After reared for about 2 months, a change in the body weight, feed efficiency and body fat percentage were measured. For measuring body fat percentage, an X-ray bone density measuring apparatus for exclusive use in experimental mice, PIXImus2 (GE Medical Systems) was used. As a result of a digestion and adsorption test on mice for 56 days, in a group using soybean oil/the glyceryl ether lipid fraction, the body weight and the feed efficiency were reduced by bout 10%, and the body fat percentage was reduced by about 12%.

Where [2] appears, read: fat composition soybean oil/test fat 0/100 (part), the fraction itself.
The mark [3] stands for this setting: fat composition soybean oil/test fat 50/50 (part).
Setting [4] is: fat composition soybean oil/test fat 90/10 (part).
The mark [5] stands for this setting: fat composition soybean oil/test fat 95/5 (part).
Setting [6] is: fat composition soybean oil/test fat 99/1 (part).
Setting [7] is: soybean oil of which 1 part was replaced with the test fat.
Setting [8] is: 56 days, versus soybean oil group.
The mark [9] stands for this setting: after rearing for 56 days, feed with 10.0 wt % soybean oil + 0.5 wt % test fraction.
Setting [10] is: before initiation of rearing, feed with 10.0 wt % soybean oil + 0.5 wt % test fraction.

The results in this text go back to patent publication US20070191495A1, “Lipase inhibitor” (FUJI OIL COMPANY, LIMITED, priority 2004, published 2007).

Take `CCCCCCCC/C=C\CCCCCCCC(=O)OC(COC(=O)CCCCC)COC(=O)CCCCC` [6O6]: the “Relative activity of test fat to soybean oil” value on pig pancreatic lipase (setting [2]) was determined as 30%; on pig pancreatic lipase (setting [3]), 68%; on pig pancreatic lipase (setting [4]), 74%; on pig pancreatic lipase (setting [5]) it was 91%; on pig pancreatic lipase (setting [6]), 86%. The “activity inhibited by” value on pig pancreatic lipase (setting [7]) was “about 15%”; on pig pancreatic lipase (soybean oil of which 10 parts was replaced with the test fat), “about 25%”.
Turning to `CCCCCCCC/C=C\CCCCCCCC(=O)OC(COC(C)=O)COC(C)=O` [2O2], the “Relative activity of test fat to soybean oil” value on pig pancreatic lipase (setting [2]) is given as 11%; at pig pancreatic lipase (setting [3]) it was 48%; on pig pancreatic lipase (setting [4]) it was 67%; on pig pancreatic lipase (setting [5]), 66%; on pig pancreatic lipase (setting [6]) it was 78%. Also, the “activity inhibited by” value is on record as “about 20%” on pig pancreatic lipase (setting [7]) and “about 35%” on pig pancreatic lipase (soybean oil of which 5 parts were replaced with the test fat). For the same compound, the “body fat percentage reduced by” value in experiment [1] (setting [8]) is listed as “about 14%”. Moreover, the “body weight reduced by” value in experiment [1] (setting [8]) was “about 10%”. Also, in experiment [1] (setting [8]), the “feed efficiency reduced by” value is reported as 17%. Besides, the Body fat percentage in experiment [1] (setting [9]) worked out at 34.8 ± 2.5; in experiment [1] (setting [10]), 19.1 ± 0.9. Moreover, in experiment [1] (setting [9]), the Feed efficiency was 0.061 ± 0.002. In addition, the Body weight in experiment [1] (setting [9]) turned out to be 30.7 ± 1.4; in experiment [1] (setting [10]), 22.8 ± 0.3.
